From US20100028293A1, “Agents for control of codling moth in fruit orchards” (Efal Chemical Industries Ltd., priority 2004, published 2010)

How the values were obtained:
codling moth adults = assay: Cage bioassay, paired traps with synthetic compounds versus water/ethanol control trap; format: in vivo, Cydia pomonella; settings: for attractiveness to the adult insects (insects caught in trap): individual compounds at the concentrations detected in the leaf extracts, paired with control trap of water and ethanol, 60 adults, overnight, decreasing order: methyl salicylate and theaspirane mixture, linalool, benzyl alcohol
Experimental: (i) Insects—Eggs of the CM Cydia pomonella L. were hatched at room temperature in a petri dish. The larvae were fed an artificial diet (Manduca Premix-Heliothis Premix, Stonefly Inc., Brvan, Tex.), kept at 25±0.5° C., 60±1% relative humidity and a photoperiod of 16:8 h (L:D) until the fifth instar larvae, which were transferred to corrugated paper strips (2 cm^2). Upon emergence, adult insects of mixed sex and age (within 2 days) were used for the cage bioassays.
(v) Cage bioassays—Trapping tests were conducted in screen cages (96×68×45 cm) in the laboratory at room temperature (23° C.±3° C.) based on the method of Zhu et al. (2003). Sixty codling moth adults of mixed sex and ages (2 days after pupal emergence) were released into a cage containing the traps with different treatments. […] A Whatman paper wick (10 cm long) was used as a dispenser. To examine the effects of adding recombinant BGL1 to the leaf extract, four traps were constructed and put into the same cage. The first trap contained 10 ml of leaf extract with the addition of recombinant BGL1. The second trap contained the same amount of leaf extract with the addition of glucoimidazole. The third trap contained only leaf extract and the fourth trap contained water. The insects caught in the traps, or around the trap, were counted 12 h after their release. The insects around the trap were defined as follows: the space of the screen cage was divided equally into four parts. Each trap was put in the center of each part. The number of the insects present in each specific space, not including the ones inside the trap, was obtained in the experiments. To test the attractiveness of the synthetic compounds, traps were made with the individual chemicals that were first dissolved in ethanol at the concentrations determined by the SPME-GC-MS analyses in leaf extracts treated with BGL1. The final concentration of ethanol was 0.01%. Each trap was kept in the cage with only a control water trap including 0.01% ethanol. The experiments were conducted overnight (from 9 pm to 9 am) to cover their active time before the twilight in the early morning. […] This experiment was replicated 3 times. The traps were randomly arranged in the replications to avoid possible position effect of the traps. The studies on sex ratios of trapped insects were skipped because of complicated involvement of insect pheromones.

[1] = test system: endogenous β-glucosidase in apple leaf extracts; assay: Quantitative β-glucosidase activity assay with pNPG as substrate; format: biochemical, Malus domestica; settings: 2 μM glucoimidazole added to leaf homogenate
Experimental: (ii) Apple leaf extract treatments—Apple (cv. Anna) spurs with both leaves and fruit were excised from a commercial orchard in the suburb of Rehovot, Israel, in June 2004. The leaves were excised from the spurs, rinsed with double distilled water (DDW) and then dried with filter paper. Dried leaves were homogenized in liquid nitrogen. Three times the weight of ice-cold extraction buffer containing 10 mM EDTA and 4 mM DTT in 50 mM citrate buffer, pH 4.3, was added to the leaf homogenate (4-5 g per treatment). The mixture was then rotated for 1 h at 4° C. and centrifuged at 16,000 g for 5 min. The supernatant (10 ml per treatment) was collected. In one treatment, 1 unit of recombinant A. niger BGL1 produced in P. pastoris (Dan et al., 2000) was added and the solution was kept at 37° C. for 4 h. In another treatment, 2 μM glucoimidazole (a β-glucosidase inhibitor) was added to the leaf homogenate immediately after the addition of the extraction buffer in order to block any endogenous β-glucosidase activity. Quantitative β-glucosidase activity was assayed using p-nitrophenyl-β-D-glucopyranoside (pNPG) as the substrate according to Shoseyov et al (1990).

C=CC(C)(O)CCC=C(C)C (stereo not shown) [linalool]
attractiveness to the adult insects (insects caught in trap) (codling moth adults): more attractive than water

OCc1ccccc1 [benzyl alcohol]
attractiveness to the adult insects (insects caught in trap) (codling moth adults): more attractive than water

CC(C)=CCC/C(C)=C/CO [geraniol]
repellent effect on codling moth adults (codling moth adults; 39.4 ng ml^−1): exhibited a repellent effect

OC[C@@H]1[C@@H](O)[C@H](O)[C@@H](O)c2nccn21 [glucoimidazole]
β-glucosidase activity in the leaf extract after treatment [1]: undetectable levels

CCCCCCCCO [1-octanol, reference compound]
effect on the behavior of codling moth adults (codling moth adults; 1-octanol alone or added to other compounds): does not have a significant effect | insects caught in trap (codling moth adults; trap with 70 ng m^−1 1-octanol): did not catch any insects

COC(=O)c1ccccc1O [methyl salicylate]
attractiveness to the adult insects (insects caught in trap) (codling moth adults): more attractive than water
